Experimental data published in patent publication US8557738B2, “Nitrogen-containing heterocyclic derivative and fungicide for agricultural and horticultural use” (Nippon Soda Co., Ltd., priority 2008, dated 2013).

Tested on: apple scab pathogen (Venturia inaequalis)
Experiment: Apple scab control test
Type: in vivo
Conditions: 336 h, emulsion sprayed at 100 ppm active ingredient onto apple seedlings (Ralls Janet), lesions on leaves after 2 weeks vs untreated, read-out: control value
`CC1(C)CN=C(c2cnc3sccc3c2)c2cccc(Cl)c2O1` [A1-20, 9-Chloro-2,2-dimethyl-5-(thieno[2,3-b]pyridin-5-yl)-2,3-dihydro-benzo[f][1,4]oxazepine] showed a pest or weed control at 100 ppm of no less than 75%. With `c1ccc2c(c1)OCCN=C2c1cnc2ccccc2c1` [B1-1, 5-(3-Quinolinyl)-2,3-dihydro-benzo[f][1,4]oxazepine] the pest or weed control at 100 ppm was no less than 75%. For `CC1(C(F)(F)F)CN=C(c2cnc3ccccc3c2)c2ccccc2O1` (centres unmarked) [B1-51, 2-Methyl-5-quinolin-3-yl-2-trifluoromethyl-2,3-dihydro-benzo[f][1,4]oxazepine], the pest or weed control at 100 ppm was no less than 75%. Molecule `CC1(Cc2ccc(F)cc2)CN=C(c2cnc3ccccc3c2)c2ccccc2O1` (centres unmarked) [B1-53, 2-(4-Fluorobenzyl)-2-methyl-5-quinolin-3-yl-2,3-dihydro-benzo[f][1,4]oxazepine] has a pest or weed control at 100 ppm of no less than 75%. `CC1(C)CN=C(c2cnc3ccccc3c2)c2cccc(C#N)c2O1` [B1-54, 2,2-Dimethyl-5-quinolin-3-yl-2,3-dihydro-benzo[f][1,4]oxazepine-9-carbonitrile] showed a pest or weed control at 100 ppm of no less than 75%. With `CC1(C(F)(F)F)CN=C(c2cnc3c(F)cccc3c2)c2ccccc2O1` (centres unmarked) [B1-56, 5-(8-Fluoro-quinolin-3-yl)-2-methyl-2-trifluoromethyl-2,3-dihydro-benzo[f][1,4]oxazepine] the pest or weed control at 100 ppm was no less than 75%.

Tested on: cucumber gray mold pathogen (Botrytis cinerea)
Experiment: Cucumber gray mold control test
Type: in vivo
Conditions: 96 h, emulsion sprayed at 100 ppm active ingredient onto cucumber seedlings (Sagami Hanjiro), lesions on leaves after 4 days vs untreated, read-out: control value
In the case of `CC1(C)CN=C(c2cnc3ccccc3c2)c2cccc(Cc3ccccc3)c2O1` [B1-74, 9-Benzyl-2,2-dimethyl-5-quinolin-3-yl-2,3-dihydro-benzo[f][1,4]oxazepine], the pest or weed control at 100 ppm is reported as no less than 75%. `CC1(C)CN=C(c2cnc3ccccc3c2)c2cc(Cl)ccc2O1` [B1-77, 7-Chloro-2,2-dimethyl-5-quinolin-3-yl-2,3-dihydro-benzo[f][1,4]oxazepine] showed a pest or weed control at 100 ppm of no less than 75%.

Tested on: not given
Experiment: not given
Conditions: not given
In the case of `Cc1cc(C2=NCCOc3c(Cl)cccc32)cnc1C`, the melting point is reported as 142 to 143 °C. For `CC1(C)CN=C(c2cnc3ccccc3c2)c2cccc(Cl)c2O1.Cl`, the melting point was 149 to 151 °C. With `CC1(C)CN=C(c2cnc3ccccc3c2)c2cccc(Cl)c2O1.O=C(O)C(F)(F)F` the melting point was 129 to 131 °C. For `CC1(C)CN=C(c2cnc3c(F)cccc3c2)c2cccc(F)c2O1.O=C(O)C(F)(F)F`, the melting point was 174 to 176 °C. `CC1(C)CN=C(c2cnc3c(F)cccc3c2)c2cccc(F)c2O1.Cl` gave a melting point of 164 to 166 °C. In the case of `Fc1cccc2c1C(c1cnc3ccccc3c1)=NCCO2`, the melting point is reported as 126 to 128 °C. `c1ccc2c(c1)OCCN=C2c1cnc2ccccc2c1` [B1-1, 5-(3-Quinolinyl)-2,3-dihydro-benzo[f][1,4]oxazepine] gave a melting point of 115 to 117 °C. `CC1(Cl)CN=C(c2cnc3ccccc3c2)c2cccc(F)c2O1` (centres unmarked) [B1-30, 2-Chloro-9-fluoro-2-methyl-5-(3-quinolinyl)-2,3-dihydro-benzo[f][1,4]oxazepine] gave a melting point of 123 to 125 °C. For `CC1(C)CN=C(c2cnc3c(F)cccc3c2)c2ccccc2O1` [B1-37, 5-(8-Fluoro-quinolin-3-yl)-2,2-dimethyl-2,3-dihydro-benzo[f][1,4]oxazepine], the melting point was 165 to 167 °C. In the case of `CC1(C)CN=C(c2cnc3c(F)cccc3c2)c2cccc(F)c2O1` [B1-38, 2,2-Dimethyl-9-fluoro-5-(8-fluoro-quinolin-3-yl)-2,3-dihydro-benzo[f][1,4]oxazepine], the melting point is reported as 171 to 173 °C. `CC1(C)CN=C(c2cnc3c(F)cccc3c2)c2cccc(Cl)c2O1` [B1-39, 9-Chloro-5-(8-fluoro-quinolin-3-yl)-2,2-dimethyl-2,3-dihydro-benzo[f][1,4]oxazepine] gave a melting point of 190 to 191 °C. `Cc1cccc2cc(C3=NCC(C)(C)Oc4c(Cl)cccc43)cnc12` [B1-40, 9-Chloro-2,2-dimethyl-5-(8-methylquinolin-3-yl)-2,3-dihydro-benzo[f][1,4]oxazepine] showed a melting point of 145 to 147 °C. `CC1(C)CN=C(c2cnc3c(Cl)cccc3c2)c2cccc(Cl)c2O1` [B1-41, 2,2-Dimethyl-9-chloro-5-(8-chloro-quinolin-3-yl)-2,3-dihydro-benzo[f][1,4]oxazepine] showed a melting point of 214 to 217 °C. Molecule `CC1N=C(c2cnc3ccccc3c2)c2ccccc2OC1(C)C` (centres unmarked) [B1-42, 5-(3-Quinolinyl)-2,2,3-trimethyl-2,3-dihydro-benzo[f][1,4]oxazepine] has a melting point of 139 to 142 °C. Work on `CC1(C)N=C(c2cnc3ccccc3c2)c2cccc(F)c2OC1(C)C` [B1-43, 9-Fluoro-5-(3-quinolinyl)-2,2,3,3-tetramethyl-2,3-dihydro-benzo[f][1,4]oxazepine] yielded a melting point of 132 to 133 °C. `CC1(C)N=C(c2cnc3c(F)cccc3c2)c2cccc(F)c2OC1(C)C` [B1-45, 9-Fluoro-5-(8-fluoro-quinolin-3-yl)-2,2,3,3-tetramethyl-2,3-dihydro-benzo[f][1,4]oxazepine] gave a melting point of 144 to 145 °C. Work on `CC1(C)CN=C(c2cnc3c(Cl)cccc3c2)c2ccccc2O1` [B1-46, 5-(8-Chloro-quinolin-3-yl)-2,2-dimethyl-2,3-dihydro-benzo[f][1,4]oxazepine] yielded a melting point of 155 to 157 °C. `CCC1(C)CN=C(c2cnc3c(F)cccc3c2)c2ccccc2O1` (centres unmarked) [B1-47, 2-Ethyl-5-(8-fluoro-quinolin-3-yl)-2-methyl-2,3-dihydro-benzo[f][1,4]oxazepine] showed a melting point of 93 to 95 °C. In the case of `CCC1(C)CN=C(c2cnc3c(F)cccc3c2)c2cccc(Cl)c2O1` (centres unmarked) [B1-48, 9-Chloro-2-ethyl-5-(8-fluoro-quinolin-3-yl)-2-methyl-2,3-dihydro-benzo[f][1,4]oxazepine], the melting point is reported as 144 to 146 °C. With `CCC1(C)CN=C(c2cnc3c(F)cccc3c2)c2cccc(F)c2O1` (centres unmarked) [B1-49, 2-Ethyl-9-fluoro-5-(8-fluoro-quinolin-3-yl)-2-methyl-2,3-dihydro-benzo[f][1,4]oxazepine] the melting point was 140 to 142 °C. Work on `CC1(c2ccccc2)CN=C(c2cnc3ccccc3c2)c2ccccc2O1` (centres unmarked) [B1-52, 2-Methyl-2-phenyl-5-quinolin-3-yl-2,3-dihydro-benzo[f][1,4]oxazepine] yielded a melting point of 196 to 197 °C. In the case of `COc1cccc2c1OC(C)(C)CN=C2c1cnc2ccccc2c1` [B1-55, 9-Methoxy-2,2-dimethyl-5-quinolin-3-yl-2,3-dihydro-benzo[f][1,4]oxazepine], the melting point is reported as 153 to 155 °C. `CC1(C(F)(F)F)CN=C(c2cnc3c(F)cccc3c2)c2ccccc2O1` (centres unmarked) [B1-56, 5-(8-Fluoro-quinolin-3-yl)-2-methyl-2-trifluoromethyl-2,3-dihydro-benzo[f][1,4]oxazepine] gave a melting point of 103 to 105 °C. `CC1(C)CN=C(c2cnc3cccc(Cl)c3c2)c2cccc(Cl)c2O1` [B1-57, 9-Chloro-5-(5-chloro-quinolin-3-yl)-2,2-dimethyl-2,3-dihydro-benzo[f][1,4]oxazepine] gave a melting point of 157 to 159 °C. `Cc1cccc2ncc(C3=NCC(C)(C)Oc4c(Cl)cccc43)cc12` [B1-58, 9-Chloro-2,2-dimethyl-5-(5-methyl-quinolin-3-yl)-2,3-dihydro-benzo[f][1,4]oxazepine] gave a melting point of 160 to 162 °C. Work on `Cc1ccc2ncc(C3=NCC(C)(C)Oc4c(Cl)cccc43)cc2c1` [B1-60, 9-Chloro-2,2-dimethyl-5-(6-methylquinolin-3-yl)-2,3-dihydro-benzo[f][1,4]oxazepine] yielded a melting point of 166 to 168 °C. `c1ccc2c(c1)N=C(c1cnc3ccccc3c1)c1ccccc1O2` [B1-83, 11-Quinolin-3-yl-dibenzo[b,f][1,4]oxazepine] showed a melting point of 182 to 184 °C. `CC1(C)COc2cc(F)ccc2C(c2cnc3ccccc3c2)=N1` [B1-85, 8-Fluoro-3,3-dimethyl-5-quinolin-3-yl-2,3-dihydro-benzo[f][1,4]oxazepine] gave a melting point of 133 to 135 °C. Molecule `CC1(C)CN=C(c2cnc3c(F)cccc3c2)c2ccccc2S1` [B2-13, 2,2-Dimethyl-5-(8-fluoro-quinolin-3-yl)-2,3-dihydro-benzo[f][1,4]thiazepine] has a melting point of 181 to 183 °C. Work on `CC1(C)CN=C(c2cnc3ccccc3c2)c2cccc(F)c2S1` [B2-14, 4-Fluoro-6,6-dimethyl-9-quinolin-3-yl-6,7-dihydro-5-thia-8-aza-benzocycloheptene] yielded a melting point of 119 to 122 °C. With `CC1(C)CN=C(c2cnc3c(F)cccc3c2)c2cccc(F)c2S1` [B2-15, 4-Fluoro-9-(8-fluoro-quinolin-3-yl)-6,6-dimethyl-6,7-dihydro-5-thia-8-aza-benzocycloheptene] the melting point was 179 to 181 °C. Work on `CC1(C)CN=C(c2cnc3ccccc3c2)c2ccccc2[S+]1[O-]` (centres unmarked) [B2-16, 6,6-Dimethyl-9-quinolin-3-yl-6,7-dihydro-5-thia-8-aza-benzocycloheptene 5-oxide] yielded a melting point of 118 to 120 °C. `O=C1COc2ccccc2C(c2cnc3ccccc3c2)N1` (centres unmarked) [B4-46, 5-Quinolin-3-yl-4,5-dihydro-benzo[f][1,4]oxazepin-3-one] gave a melting point of 225 to 227 °C. `CC1(C)CNC(c2cnc3c(F)cccc3c2)c2cccc(F)c2O1` (centres unmarked) [B4-47, 9-Fluoro-5-(8-fluoro-quinolin-3-yl)-2,2-dimethyl-2,3,4,5-tetrahydro-benzo[f][1,4]oxazepine] showed a melting point of 130 to 131 °C. For `CCN1CC(C)(C)Oc2c(F)cccc2C1c1cnc2c(F)cccc2c1` (centres unmarked) [B4-48, 4-Ethyl-9-fluoro-5-(8-fluoro-quinolin-3-yl)-2,2-dimethyl-2,3,4,5-tetrahydro-benzo[f][1,4]oxazepine], the melting point was 117 to 118 °C. For `CC1(C)CNC(c2cnc3c(F)cccc3c2)c2cccc(Cl)c2O1` (centres unmarked) [B4-49, 9-Chloro-5-(8-fluoro-quinolin-3-yl)-2,2-dimethyl-2,3,4,5-tetrahydro-benzo[f][1,4]oxazepine], the melting point was 133 to 134 °C. Molecule `CC1(C)CN(C=O)C(c2cnc3c(F)cccc3c2)c2cccc(F)c2O1` (centres unmarked) [B4-51, 9-Fluoro-5-(8-fluoro-quinolin-3-yl)-2,2-dimethyl-2,3-dihydro-5H-benzo[f][1,4]oxazepine-4-carbaldehyde] has a melting point of 131 to 133 °C. `CC(=O)N1CC(C)(C)Oc2c(F)cccc2C1c1cnc2c(F)cccc2c1` (centres unmarked) [B4-52, 1-[9-Fluoro-5-(8-fluoro-quinolin-3-yl)-2,2-dimethyl-2,3-dihydro-5H-benzo[f][1,4]oxazepin-4-yl]-ethanone] showed a melting point of 132 to 134 °C. With `CC1(C)Oc2ccccc2C(c2cnc3ccccc3c2)NC1=O` (centres unmarked) [B4-53, 2,2-Dimethyl-5-quinolin-3-yl-4,5-dihydro-benzo[f][1,4]oxazepin-3-one] the melting point was 225 to 227 °C.
